“And” between values parts separate entries of the source, which are not always exact repeats. Equal values may be shown once.
Columns and labels:
[1] = CED co-infusion of AAV2 vectors and Gd into NHP thalamus, MRI volume of Gd distribution; conditions: co-infused with AAV2-GDNF, Vi ~150 μL, n=5, mean±SEM
[2] = CED infusion of GDL or free Gadoteridol into NHP putamen, real-time MRI distribution; assay type: in vivo, Rhesus macaques and Cynomolgus monkeys
Procedure: Thirteen normal adult NHP, including 11 Rhesus macaques (7 male and 4 female, aged from 8 to 18 years; mean age 11.9 years, weight 4-9.4 kg) and 2 Cynomolgus monkeys (one male and one female, age 7 years for both; weight 5 and 7 kg respectively) were the subjects in the present study. Experimentation was performed according to the National Institutes of Health guidelines and to the protocols approved by the Institutional Animal Care and Use Committee at the University of California San Francisco (San Francisco, Calif.) and at Valley Biosystems (Sacramento, Calif.). Thirteen animals received a total of 25 intracranial infusion of GDL (2 mM) or free Gadoteridol (2 mM, Prohance; Bracco Diagnostics, Princeton, N.J.) into the putamen. Infusions were performed by previously established CED techniques for NHP (Bankiewicz, Eberling et al. 2000). GDL were prepared as previously described (Fiandaca, Varenika et al. 2008) (Krauze, McKnight et al. 2005).
Primates received a baseline MRI before surgery to visualize anatomical landmarks and to generate stereotactic coordinates of the proposed target infusion sites for each animals. NHPs underwent neurosurgical procedures to position the MRI-compatible guide cannula over the putamen. Each customized guide cannula was cut to a specified length, stereotactically guided to its target through a burr-hole created in the skull, and secured to the skull by dental acrylic. The tops of the guide cannula assemblies were capped with stylet screws for simple access during the infusion procedure. Animals recovered for at least 2 weeks before initiation of infusion procedures. Animals were anesthetized with isoflurane (Aerrane; Ohmeda Pharmaceutical Products Division, Liberty Corner, N.J.) during real-time MRI acquisition. Each animal's head was placed in an MRI-compatible stereotactic frame, and a baseline MRI was performed. Vital signs, such as heart rate and PO2, were monitored throughout the procedure.
Briefly, the infusion system consisted of a fused silica reflux-resistant cannula (Fiandaca, Varenika et al. 2008) (Krauze, McKnight et al. 2005) that was connected to a loading line (containing GDL or free Gadoteridol), an infusion line with oil, and another infusion line with trypan blue solution. A 1-ml syringe (filled trypan blue solution) mounted onto a micro-infusion pump (BeeHive, Bioanalytical System, West Lafayette, Ind.), regulated the flow of fluid through the system. Based on MRI coordinates, the cannula was mounted onto a stereotactic holder and manually guided to the targeted region of the brain through the previously placed guide cannula. The length of each infusion cannula was measured to ensure that the distal tip extended 3 mm beyond the length of the respective guide. This created a stepped design at the tip of the cannula to maximize fluid distribution during CED procedures and minimize reflux along the cannula tract. We refer to this transition from fused silica tip to a fused silica sheath as the “step”, and all positioning data is derived from the position of this step because of its unambiguous visibility on MRI.
After securing placement of the infusion cannula, the CED procedures were initiated with real-time MRI data being acquired (real-time convective delivery, RCD). We used the same infusion parameters for every NHP infused throughout the study. Infusion rates were as follows: 0.1 μl/min was applied when lowering cannula to targeted area and increased at 10-min intervals to 0.2, 0.5, 0.8, 1.0, and 2.0 μl/min. Approximately 15 min after infusion, the cannula was withdrawn from the brain. Four animals received multiple infusions. Each animal had at least a 4-week interval between each infusion procedure.
NHPs were sedated with a mixture of ketamine (Ketaset, 7 mg/kg, IM) and xylazine (Rompun, 3 mg/kg, IM). After sedation, each animal was placed in a MRI-compatible stereotactic frame. The ear-bar and eye-bar measurements were recorded, and an intravenous line was established. […]

[3] = CED infusion of gadoteridol into NHP brainstem, real-time MRI distribution; assay type: in vivo, Cynomolgus monkeys and Rhesus macaques
[4] = CED infusion of gadoteridol into NHP thalamus, real-time MRI distribution; assay type: in vivo, Cynomolgus monkeys and Rhesus macaques
[5] = 6 cases, good distribution with leakage

CC(O)CN1CCN(CC(=O)[O-])CCN(CC(=O)[O-])CCN(CC(=O)[O-])CC1.[Gd+3] (centres unmarked) [Gadoteridol]
ratio of Vd/Vi, mean [1]: 4.68±0.33 | final Vd in WMT, mean volume ([2]; blue zone, 4 cases): 19.4±0.01 mm3 | infusion volume when leakage was first seen, mean ([2]; blue zone, 4 cases): 6.9 ± 0.9 µL | final Vd in WMT, mean volume ([2]; red zone, 13 cases): 66.8±0.01 mm^3 | infusion volume when leakage was first seen, mean ([2]; red zone, 13 cases): 7.9 ± 1.7 µL | Vd in the putamen, mean volume ([2]; step in blue zone, 4 cases): 139.6±0.05 mm^3 | Vd in the putamen, mean volume ([2]; step in green zone, 8 cases): 116.4±0.04 mm^3 | Vd (putamen), mean volume ([2]; step in red zone, 13 cases): 62.1±0.01 mm3 | Vd in the brainstem, mean volume ([3]; 8 infusions): 585.2±75.4 mm^3 | percent of Vd in the brainstem vs total Vd in brainstem and thalamus ([3]; 100% in 7 cases, 95.6% in one case, listed as Gd): 100% and 95.6% | maximum distribution ([3]; brainstem, for Vi 212 μl): around 695.6 mm^3 | distribution ratio ([3]; brainstem, maximum distribution at Vi 212 μl): 328.1% | Vd in thalamus (leakage) ([3]; one brainstem case with leakage into thalamus at end of infusion): 30.5 mm^3 | Vd in the thalamus, mean volume [4, 5]: 191.3±38.1 mm^3 | percent of Vd in the thalamus, mean [4, 5]: 89.0%±1.3% | Vd of leakage, mean volume ([4]; 6 cases, leakage into WMT / lenticular fasciculus): 24.3±7.0 mm^3 | Vd in the thalamus, mean volume ([4]; 8 cases with excellent distribution): 405.6±66.6 mm^3 | percent of Vd in the thalamus vs total Vd in thalamus and WMT ([4]; all 8 cases with excellent distribution): 100% | maximum distribution ([4]; thalamus, for Vi 158 μl): around 660.3 mm^3 | distribution ratio ([4]; thalamus, maximum distribution at Vi 158 μl): 417.9%

Reference: patent US20180344199A1, “OPTIMIZED PLACEMENT OF CANNULA FOR DELIVERY OF THERAPEUTICS TO THE BRAIN” (The Regents of the University of California, priority 2010, published 2018)
